Measured values published in patent US9102925B2, “Compositions and methods for treating or preventing conditions and diseases associated with Mannheimia haemolytica” (Washington State University, priority 2009, dated 2015).
“And” between values parts separate entries of the source, which are not always exact repeats. Identical values can stand only once. “Also recorded” adds a separate entry of the source. Peptide text beside a SMILES is read from it.

Legend:
[1] = target: T1, M. haemolytica leukotoxin (Lkt) (Mannheimia haemolytica, UniProt P16535); assay: cell-based
[2] = system: M. haemolytica serotype-1 strain SH789; assay: Calf challenge model: endobronchial inoculation of M. haemolytica with or without peptide; type: in vivo, Mannheimia haemolytica; settings: for Gross pneumonic lesions as % of total lung volume, Lesion (%), individual calf: 2 mg peptide with 5×10^9 CFU M. haemolytica endobronchially, necropsy 90 hours post-inoculation; for Number of M. haemolytica isolated from the lungs at necropsy, individual calf / Number of M. haemolytica isolated from the lungs at necropsy, Mean / Gross pneumonic lesions as % of total lung volume, Mean (%): 2 mg peptide with 5×10^9 CFU endobronchially; for Duration of nasal discharge post-inoculation: study period 90 hours; for Number of M. haemolytica isolated from the lungs at necropsy, Mean: group mean; for Number of M. haemolytica isolated from the lungs at necropsy, Mean / Gross pneumonic lesions as % of total lung volume, Mean (%): 4 calves; for Gross pneumonic lesions as % of total lung volume, Mean (%): group mean±SEM, 90 hours
Description: M. Haemolytica serotype-1 strain SH789, isolated from the pneumonic lung of a calf, was streaked on blood agar plate and incubated overnight at 37° C. The following day few colonies were transferred to 3 ml of pre-warmed brain heart infusion (BHI) broth and incubated for 3 hours at 37° C. with constant shaking (200 cycles/minute). Two BHI agar plates were ‘lawned’ with this bacterial culture using sterile cotton swabs and incubated overnight at 37° C. The following day (day of inoculation) M. haemolytica was harvested from the BHI agar plates and transferred to 40 ml of pre-warmed BHI broth in a 250 ml flask, and incubated for 2.5 hours at 37° C. with constant shaking to obtain cultures in the logarithmic phase of growth. The culture was centrifuged at 6000×g at 20° C. for 30 minutes and the pellet was washed once with RPMI 1640 (without phenol red) medium. The bacterial pellet was re-suspended in 4 ml of RPMI 1640 (without phenol red), and 1 ml of this culture was added to 50 ml of pre-warmed RPMI 1640 (without phenol red) containing L-glutamine (1 ml L-glutamine/100 ml RPMI) in a 250 ml flask. Bacteria were incubated for 3 hours at 37° C. with constant shaking to obtain logarithmic phase culture and the optical density (OD) was measured. The culture was appropriately diluted to obtain a concentration of 1×10^9 CFU of M. haemolytica per ml. Five ml of this preparation per calf was used for endobronchial challenge. The bacterial concentration was confirmed the following day by culturing diluted aliquots of the inoculum on BHI agar and counting the resulting colonies.
The peptide (P17) containing amino acids 5-17 of bovine CD18 (NH2-RPQLLLLAGLLAL-OH) (SEQ ID NO.:71), and the peptide (PSC) containing the same amino acids as peptide P17 but in a randomly scrambled sequence (NH2-LRALLPLQLLAGL-OH) (SEQ ID NO.:72), were synthesized at Neopeptide (Cambridge, Mass.). Both peptides were re-suspended in dimethysulfoxide (ATCC) at a concentration of 20 mg/ml and stored at −20° C. until used. Based on the results of in vitro neutralization of Lkt by peptide P17, each calf was endobronchially inoculated with 2 mg of peptide in 5 ml of RPMI mixed with 5×10^9 CFU of M. haemolytica in 5 ml of RPMI.
All experimental protocols were approved by the Institutional Animal Care and Use Committee (IACUC) at Washington State University before the onset of the study. Twelve Holstein calves were randomly assigned to three experimental groups. Calves were matched for age when assigned into three groups. Prior to inoculation, serum samples and pharyngeal and nasal swabs were collected from all the calves. Group I calves received endobronchial injections of 5×10^9 CFU of M. haemolytica in 10 ml of RPMI. Group II calves received 5×10^9 CFU of M. haemolytica and 2 mg of peptide PSC in 10 ml of RPMI. Group III calves received 5×10^9 CFU of M. haemolytica and 2 mg of peptide P17 in 10 ml of RPMI. The inoculum was flushed down with an additional 10 ml of RPMI in all calves. Clinical disease in each calf was scored at different time points post-inoculation.
Physical examination of each calf was performed immediately prior to experimental infection and at 6, 18, 24, 42, 48, 66, 72, and 90 hours post-inoculation. Signs of clinical disease were allocated points according to the scoring system followed by Malazdrewich et al (2003; Table 3).
On necropsy lungs were removed and gross pneumonic lesion development in each lobe of lung was observed. The entire lung from each animal was sliced at 1 cm thickness and the total and pneumonic lesion areas were traced onto transparent acetate sheets. The traced portions were scanned into ImgaeJ, NIH Image (National Institute of Health; Nethesda, Md.), which was used to measure areas representing both the total serial section and the gross pneumonic lesions within it. […]

[3] = target: T1, M. haemolytica leukotoxin (Lkt)

Molecule	IC50 [1] [µM]	M. haemolytica in lungs, fold less than in Group I (bacteria only) and Group II (PSC) ([2]; calves, necropsy 90 hours, P<0.001)	Gross pneumonic lesions (percent lung volume) compared between groups ([2]; calves, necropsy 90 hours, P=0.9)	Gross pneumonic lesions as % of total lung volume, Lesion (%), individual calf ([2]; calves)	Number of M. haemolytica isolated from the lungs at necropsy, individual calf ([2]; calves, necropsy 90 hours)	Mean clinical score compared with other groups at 24 hours post-inoculation ([2]; calves, 24 hours post-inoculation, P<0.05)	Total clinical disease scores compared with Group I and II ([2]; calves, scored 6 to 90 hours post-inoculation)	Duration of nasal discharge post-inoculation ([2]; calves)	Number of M. haemolytica isolated from the lungs at necropsy, Mean ([2]; necropsy 90 hours)	Gross pneumonic lesions as % of total lung volume, Mean (%) [2] [%]	Inhibition of Lkt-induced cytolysis of bovine PMNs [1]	Inhibition of Lkt-induced cytolysis of ruminant leukocytes [1]	Leukotoxic activity of supernatant fluids from M. haemolytica cultures incubated with peptide [3]
CSCC[C@H](N)C(=O)N[C@@H](CC(C)C)C(=O)N[C@@H](CCCNC(=N)N)C(=O)N[C@@H](CCC(N)=O)C(=O)N[C@@H](CCCNC(=N)N)C(=O)N1CCC[C@H]1C(=O)N[C@@H](CCC(N)=O)C(=O)N[C@@H](CC(C)C)C(=O)N[C@@H](CC(C)C)C(=O)N[C@@H](CC(C)C)C(=O)N[C@@H](CC(C)C)C(=O)N[C@@H](C)C(=O)NCC(=O)N[C@@H](CC(C)C)C(=O)N[C@@H](CC(C)C)C(=O)N[C@@H](C)C(=O)N[C@@H](CC(C)C)C(=O)N[C@@H](CCC(N)=O)C(=O)N[C@@H](CO)C(=O)N[C@H](C(=O)O)C(C)C [P1] (H-MLRQRPQLLLLAGLLALQSV-OH)	11.6	–	–	–	–	–	–	–	–	–	–	–	–
NH2-RPQLLLLAGLLAL-OH (H-RPQLLLLAGLLAL-OH; listed as Bos taurus) [P17]	–	100- to 1000 fold and 100 to 1000 fold	not statistically significant; also recorded: no less than those in calves inoculated with the control peptide PSC	15.67% and 2.7% and 13.22% and 8.51%	5.29 × 10^3 CFU per gram of lung tissue and 4.92 × 10^2 CFU per gram of lung tissue and 5.70 × 10^4 CFU per gram of lung tissue and 8.00 × 10^2 CFU per gram of lung tissue	statistically significantly lower	lower than those for group I and II at all time points except 48 hours	up to 24 hours	1.589 ± 1.374 × 10^4 CFU per gram of lung tissue	10.53 ± 3.02	strongly inhibited	effectively inhibited	did not exhibit significant leukotoxic activity
CC(C)C[C@H](NC(=O)CNC(=O)[C@H](C)NC(=O)[C@H](CC(C)C)NC(=O)[C@H](CC(C)C)NC(=O)[C@H](CC(C)C)NC(=O)[C@H](CC(C)C)NC(=O)[C@H](CCC(N)=O)NC(=O)[C@@H]1CCCN1C(=O)[C@@H](N)CCCNC(=N)N)C(=O)N[C@@H](CC(C)C)C(=O)N[C@@H](C)C(=O)N[C@@H](CC(C)C)C(=O)N[C@@H](CCC(N)=O)C(=O)N[C@@H](CO)C(=O)N[C@H](C(=O)N[C@@H](CC(C)C)C(=O)N[C@@H](CO)C(=O)N[C@@H](CCC(N)=O)C(=O)N[C@@H](CCC(=O)O)C(=O)O)C(C)C [P5] (H-RPQLLLLAGLLALQSVLSQE-OH)	5.55	–	–	–	–	–	–	–	–	–	–	–	–
NH2-LRALLPLQLLAGL-OH (H-LRALLPLQLLAGL-OH) [PSC, reference compound]	–	–	–	4.07% and 10.70% and 9.01% and 24.57%	1.89 × 10^7 CFU per gram of lung tissue and 6.73 × 10^5 CFU per gram of lung tissue and 6.50 × 10^7 CFU per gram of lung tissue and 1.87 × 10^7 CFU per gram of lung tissue	–	–	throughout the study period	2.58 ± 1.374 × 10^7 CFU per gram of lung tissue	12.09 ± 4.39	–	–	had significant leukotoxic activity
